Read-outs that look alike come from different tables or passages of the source. One block for each compound: values may come before it.
Tests used:
Assay type in all cases: cell-based
HCC1806 = experiment: Colony formation (CFU) assay, HCC1806; conditions: HCC1806, breast, CFU ~14 days, wells with DMSO or 300 nM Compound 1, read-out: Chemotherapy nM IC50s (converted)
Method: (§1) In vitro experiments were conducted using the colony formation unit (CFU) assay on various cell lines. The CFU assay involved first establishing what cell plating density enabled the development of clearly interspersed colonies on a six-well plate when left to grow for around 14 days. […] At or around day 14 when clearly interspersed colonies were visible in the DMSO-treated wells, the cells were fixed and stained using 0.1% crystal violet in 10% ethanol for 20 minutes at room temperature. The plates were imaged then the amount of crystal violet stain in each well was quantified by extracting the crystal violet into 10% acetic acid and the absorbance measured at 565 nm.
(§2) For certain cell lines, multiple IC50 values were taken, and those are separated by commas. Synergy scores are in parentheticals.

647V = experiment: Colony formation (CFU) assay, 647V; conditions: Homo sapiens, 336 h, bladder, CFU ~14 days, wells with DMSO or 300 nM Compound 1, read-out: Chemotherapy nM IC50s
Method: as §1, §2

SUM149PT = experiment: Colony formation (CFU) assay, SUM149PT; conditions: breast
Method: as §1, §2

UWB1289 = experiment: Colony formation (CFU) assay, UWB1289; conditions: 336 h; UWB1289, ovary; CFU ~14 days; wells with DMSO or 300 nM Compound 1; read-out: Chemotherapy nM IC50s
Method: as §1, §2

HPAC = experiment: Colony formation (CFU) assay, HPAC; conditions: Homo sapiens, 336 h, pancreas, CFU ~14 days, wells with DMSO or 300 nM Compound 1, read-out: Chemotherapy nM IC50s
Method: as §1, §2

CAPAN2 = experiment: Colony formation (CFU) assay, CAPAN2; conditions: CAPAN2, pancreas, CFU ~14 days, wells with DMSO or 300 nM Compound 1, read-out: Chemotherapy nM IC50s
Method: as §1, §2

MDAMB231 = experiment: Colony formation (CFU) assay, MDAMB231; conditions: MDAMB231, breast, CFU ~14 days, wells with DMSO or 300 nM Compound 1, read-out: Chemotherapy nM IC50s
Method: as §1, §2

OVSAHO = experiment: Colony formation (CFU) assay, OVSAHO; conditions: Homo sapiens, 336 h, ovary, CFU ~14 days, wells with DMSO or 300 nM Compound 1, read-out: Chemotherapy nM IC50s
Method: as §1, §2

COV362 = experiment: Colony formation (CFU) assay, COV362; conditions: 336 h; COV362, ovary; CFU ~14 days; wells with DMSO or 300 nM Compound 1; read-out: Chemotherapy nM IC50s
Method: as §1, §2

A549 = experiment: Colony formation (CFU) assay, A549; conditions: Homo sapiens, 336 h; A549, lung; CFU ~14 days; wells with DMSO or 300 nM Compound 1; read-out: Chemotherapy nM IC50s
Method: as §1, §2

NCIH1915 = experiment: Colony formation (CFU) assay, NCIH1915; conditions: NCIH1915, lung, CFU ~14 days, wells with DMSO or 300 nM Compound 1, read-out: Chemotherapy nM IC50s
Method: as §1, §2

NCIH1650 = experiment: Colony formation (CFU) assay, NCIH1650; conditions: NCIH1650, lung, CFU ~14 days, wells with DMSO or 300 nM Compound 1, read-out: Chemotherapy nM IC50s
Method: as §1, §2

ACCMESO1 = experiment: Colony formation (CFU) assay, ACCMESO1; conditions: ACC-MESO-1, 336 h; ACCMESO1, pleura; CFU ~14 days; wells with DMSO or 300 nM Compound 1; read-out: Chemotherapy nM IC50s
Method: as §1, §2

MERO14 = experiment: Colony formation (CFU) assay, MERO14; conditions: CFU ~14 days, wells with DMSO or 300 nM Compound 1, read-out: Chemotherapy nM IC50s
Method: as §1, §2

KALS1 = experiment: Colony formation (CFU) assay, KALS1; conditions: Homo sapiens, KALS-1, 336 h; KALS1, nervous system; CFU ~14 days; wells with DMSO or 300 nM Compound 1; read-out: Chemotherapy nM IC50s
Method: as §1, §2

NCIH2452 = experiment: Colony formation (CFU) assay, NCIH2452; conditions: Homo sapiens, NCI-H2452, 336 h; NCIH2452, pleura; CFU ~14 days; wells with DMSO or 300 nM Compound 1; read-out: Chemotherapy nM IC50s
Method: as §1, §2

MSTO211H = experiment: Colony formation (CFU) assay, MSTO211H; conditions: pleura, CFU ~14 days, wells with DMSO or 300 nM Compound 1, read-out: Chemotherapy nM IC50s
Method: as §1, §2

HCC1937 = experiment: Colony formation (CFU) assay, HCC1937; conditions: HCC1937, breast, CFU ~14 days, wells with DMSO or 300 nM Compound 1, read-out: Chemotherapy nM IC50s
Method: as §1, §2

BECKER = experiment: Colony formation (CFU) assay, BECKER; conditions: CFU ~14 days, wells with DMSO or 300 nM Compound 1, read-out: Chemotherapy nM IC50s
Method: as §1, §2

U251MG = experiment: Colony formation (CFU) assay, U251MG; conditions: nervous system, CFU ~14 days, wells with DMSO or 300 nM Compound 1, read-out: Chemotherapy nM IC50s
Method: as §1, §2

IC50 (HCC1806; Homo sapiens, 336 h): < 1 nM
IC50 (647V): 2 nM
IC50 (SUM149PT; Homo sapiens, 336 h, CFU ~14 days, wells with DMSO or 300 nM Compound 1, read-out: Chemotherapy nM IC50s): 1 nM
SMILES: Nc1ccn([C@@H]2O[C@H](CO)[C@@H](O)C2(F)F)c(=O)n1 [Gem., gemcitabine]
synergy score (SUM149PT; chemotherapy agent in combination with 300 nM Compound 1): (−1)

SMILES: CC(=O)O[C@H]1C(=O)[C@@]2(C)[C@H]([C@H](OC(=O)c3ccccc3)[C@]3(O)C[C@H](OC(=O)[C@H](O)[C@@H](NC(=O)c4ccccc4)c4ccccc4)C(C)=C1C3(C)C)[C@]1(OC(C)=O)CO[C@@H]1C[C@@H]2O [Pacli., paclitaxel]
IC50 (UWB1289): 43 nM
IC50 (HPAC): 3 nM
IC50 (CAPAN2): < 1 nM
IC50 (CAPAN2; Homo sapiens, Capan-2, 336 h): 2 nM
IC50 (HCC1806): < 1 nM
IC50 (HCC1806; Homo sapiens, HCC1806, 336 h): 1 nM
IC50 (MDAMB231; Homo sapiens, MDA-MB-231, 336 h): 1 nM
IC50 (MDAMB231): < 1 nM
IC50 (OVSAHO): 78 nM
IC50 (COV362): 13 nM
IC50 (A549): 2 nM
IC50 (NCIH1915; NCI-H1915, 336 h): < 1 nM
IC50 (NCIH1650; Homo sapiens, NCI-H1650, 336 h): 1 nM
IC50 (NCIH1650): < 1 nM

SMILES: COc1cccc2c1C(=O)c1c(O)c3c(c(O)c1C2=O)C[C@@](O)(C(=O)CO)C[C@@H]3O[C@H]1C[C@H](N)[C@H](O)[C@H](C)O1 [Dox., doxorubicin]
IC50 (UWB1289): 76 nM
IC50 (ACCMESO1): 19 nM
IC50 (MERO14; 336 h): 17 nM
IC50 (MERO14): 14 nM
IC50 (KALS1): 52 nM
IC50 (OVSAHO): 147 nM
IC50 (COV362): 108 nM
IC50 (NCIH2452): 21 nM
IC50 (MSTO211H; Homo sapiens, MSTO-211H, 336 h): 16 nM
IC50 (MSTO211H): 8 nM
IC50 (HCC1937): 4 nM
IC50 (HCC1937; Homo sapiens, HCC1937, 336 h): 8 nM

IC50 (BECKER): 837 nM
IC50 (U251MG): 583 nM
IC50 (NCIH1915): 500 nM
IC50 (NCIH1650): 270 nM
SMILES: COc1cc([C@@H]2c3cc4c(cc3[C@@H](O[C@@H]3O[C@@H]5CO[C@@H](C)O[C@H]5[C@H](O)[C@H]3O)[C@H]3COC(=O)[C@H]23)OCO4)cc(OC)c1O [Etop., etoposide]
